Data reported in patent US8278460B2, “Substituted benzimidazoles” (Concert Pharmaceuticals, Inc., priority 2009, dated 2012).

Legend:
[1] = tested on: inflammatory and neuropathic pain-like behaviors in animal models; conditions: cited from earlier work
GABAA α3 receptors = biological target: T1, GABAA α3 receptors (Homo sapiens, UniProt P18507+P34903); conditions: cited from earlier work
T1 sequence (P34903 29-492): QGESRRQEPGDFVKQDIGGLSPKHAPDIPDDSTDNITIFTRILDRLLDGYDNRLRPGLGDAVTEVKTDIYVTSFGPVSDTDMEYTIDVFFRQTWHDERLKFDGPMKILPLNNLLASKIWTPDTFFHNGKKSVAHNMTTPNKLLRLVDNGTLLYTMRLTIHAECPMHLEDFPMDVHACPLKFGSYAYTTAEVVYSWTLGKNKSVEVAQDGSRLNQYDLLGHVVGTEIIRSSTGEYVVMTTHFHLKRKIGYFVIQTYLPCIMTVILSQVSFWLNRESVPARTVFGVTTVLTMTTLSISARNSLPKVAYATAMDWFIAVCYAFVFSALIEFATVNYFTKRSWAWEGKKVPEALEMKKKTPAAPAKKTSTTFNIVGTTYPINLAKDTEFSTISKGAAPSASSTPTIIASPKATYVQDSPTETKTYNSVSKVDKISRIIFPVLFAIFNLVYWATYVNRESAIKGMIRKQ
T1 sequence (P18507 40-467 limits assumed): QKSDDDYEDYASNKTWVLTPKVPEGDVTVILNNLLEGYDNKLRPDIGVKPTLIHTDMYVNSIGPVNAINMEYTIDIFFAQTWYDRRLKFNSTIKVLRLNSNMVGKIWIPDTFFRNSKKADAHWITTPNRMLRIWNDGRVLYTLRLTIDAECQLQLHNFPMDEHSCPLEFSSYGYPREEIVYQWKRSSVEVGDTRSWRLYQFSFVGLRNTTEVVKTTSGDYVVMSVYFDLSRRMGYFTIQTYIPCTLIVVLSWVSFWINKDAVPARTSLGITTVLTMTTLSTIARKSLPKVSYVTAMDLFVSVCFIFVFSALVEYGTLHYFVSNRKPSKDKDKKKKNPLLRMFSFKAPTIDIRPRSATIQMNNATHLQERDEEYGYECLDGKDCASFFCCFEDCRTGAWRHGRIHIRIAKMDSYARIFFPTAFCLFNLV
T1 sequence (P47870 25-512 partner limits assumed): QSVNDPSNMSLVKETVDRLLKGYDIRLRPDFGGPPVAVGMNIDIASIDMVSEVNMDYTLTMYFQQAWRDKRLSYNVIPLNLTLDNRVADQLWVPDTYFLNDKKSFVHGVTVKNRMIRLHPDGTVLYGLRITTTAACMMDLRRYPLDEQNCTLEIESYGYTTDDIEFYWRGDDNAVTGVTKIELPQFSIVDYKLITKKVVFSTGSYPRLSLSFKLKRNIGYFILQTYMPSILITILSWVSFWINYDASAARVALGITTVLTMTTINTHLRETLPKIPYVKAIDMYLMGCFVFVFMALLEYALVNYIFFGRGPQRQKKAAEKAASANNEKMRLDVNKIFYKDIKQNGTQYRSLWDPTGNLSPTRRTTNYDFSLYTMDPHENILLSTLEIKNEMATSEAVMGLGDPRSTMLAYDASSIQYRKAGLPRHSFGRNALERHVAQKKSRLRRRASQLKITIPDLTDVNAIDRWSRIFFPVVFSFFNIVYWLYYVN

[2] = Metabolic stability in human liver microsomes; format: in vitro ADME; conditions: for % Parent Remaining (30 min) Ave ± SD: 2.0 mg/mL human liver microsomes, 2 mM NADPH, pH 7.4, 37° C., average of 3 experiments
Protocol: Human liver microsomes (20 mg/mL) were available from Xenotech, LLC (Lenexa, Kans.). β-nicotinamide adenine dinucleotide phosphate, reduced form (NADPH), magnesium chloride (MgCl2), and dimethyl sulfoxide (DMSO) are available from Sigma-Aldrich.
7.5 mM stock solutions of test compound 102 as well as of NS11394 were prepared in DMSO. The 7.5 mM stock solutions were diluted to 12.5 in acetonitrile (ACN). The 20 mg/mL human liver microsomes were diluted to 2.5 mg/mL in 0.1 M potassium phosphate buffer, pH 7.4, containing 3 mM MgCl2. The diluted microsomes were added to wells of a 96-well deep-well polypropylene plate in triplicate. A […] aliquot of the 12.5 test compound 102 was added to the microsomes and the mixture was pre-warmed for 10 minutes. Reactions were initiated by addition of pre-warmed NADPH solution. The final reaction volume was 0.5 mL and contained 2.0 mg/mL human liver microsomes, 0.25 test compound, and 2 mM NADPH in 0.1 M potassium phosphate buffer, pH 7.4, and 3 mM MgCl2. The reaction mixtures were incubated at 37° C., and […] aliquots were removed at 0, 5, 10, 20, and 30 minutes and added to shallow-well 96-well plates which contain […] of ice-cold ACN with internal standard to stop the reactions. The plates were stored at 4° C. for 20 minutes after which […] of water was added to the wells of the plate before centrifugation to pellet precipitated proteins. Supernatants were transferred to another 96-well plate and analyzed for amounts of parent remaining by LC-MS/MS using an AB SCIEX QTRAP® 5500. Testing was done in triplicate.
The in vitro t1/2s for test compounds were calculated from the slopes of the linear regression of % parent remaining (ln) vs incubation time relationship: in vitro t1/2=0.693/k k=−[slope of linear regression of % parent remaining (ln) vs incubation time]. Data analysis was performed using Microsoft Excel Software.
The testing was done in triplicate and the values shown in the table reflect the average of 3 experiments. […]

rodent anxiety models = conditions: in vivo; cited from earlier work
[3] = animal models, oral administration

Row | % Parent Remaining (30 min) Ave ± SD [2] | half-life ([2]; human, human liver microsomes, pH 7.4, in vitro t1/2 from linear regression of ln % parent remaining vs incubation time, NC = not calculable due to <20% metabolism in HLM, read-out: t1/2 (min) Ave ± SD) | SMILES | reversal of inflammatory and neuropathic pain-like behaviors [1, 3] | tolerability [1, 3] | dependence issues ([1]; in vivo) | efficacy at GABAA α3 receptors (GABAA α3 receptors) | efficacy in rodent anxiety models (rodent anxiety models)
1 | 77 ± 3.7% | 95 ± 35 min | CC(C)(O)c1ccc2c(c1)ncn2-c1cccc(-c2ccccc2C#N)c1 [NS11394, 3′-[5-(1-hydroxy-1-methylethyl)-1H-benzimidazol-1-yl]biphenyl-2-carbonitrile] | completely reverse | well tolerated | No dependence issues were observed | high efficacy | potent and highly effective
2 | 101 ± 8.7% | – | [2H]C([2H])([2H])C(O)(c1ccc2c(c1)ncn2-c1cccc(-c2ccccc2C#N)c1)C([2H])([2H])[2H] [Compound 102, 3′-(5-(2-Hydroxy-1,1,1,3,3,3-d6-propan-2-yl)-1H-benzo[d]imidazol-1-yl)biphenyl-2-carbonitrile] | – | – | – | – | –
